Data from patent US12115178B2, “Acylated active agents and methods of their use for the treatment of autoimmune disorders” (Flagship Pioneering Innovations V, Inc., priority 2018, dated 2024).

Legend:
Format in all cases: in vitro ADME
[1] = Assay 3. In vitro Colonic Material Stability Assay; conditions: colonic material slurry, anaerobic, 1 or 10 μM
Description: Assay 3. In vitro Colonic Material Stability Assay. This assay was used to assess the stability of an acylated active agent in a large intestine. All experiments were performed in an anaerobic chamber containing 90% nitrogen, 5% hydrogen and 5% carbon dioxide. Colonic material was resuspended as a slurry (15% w/v final concentration) in pre-reduced, anaerobically sterilized dilution blanks (Anaerobe Systems AS-908). The colonic material was then inoculated into 96 well plates containing YCFAC media (Anaerobe Systems AS-680) or other suitable media (6.7 μL slurry into 1 mL total media). Compounds or groups of compounds were added to each individual well to reach a final analyte concentration of 1 or 10 μM, and the material was mixed by pipetting. Sample was removed after set timepoints (0, 120, 240, 480, 1440, 2880 minutes after initiation of the assay), quenched with acetonitrile containing internal standard, and analyzed by LC/MS.

[2] = Assay 2. Stability in Simulated Intestinal Fluid (SIF); conditions: SIF pH 6.7 with pancreatin, 1 μM, 37° C.
Outline: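 Compounds at 1 µM (from 1 mM DMSO stock) were incubated at 37 °C with agitation in simulated intestinal fluid: FaSSIF in pH 6.7 phosphate buffer with pancreatin. Aliquots taken from T0 onward were quenched with acetonitrile and analyzed by LC/MS for degradation rate.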

[3] = Assay 1. Stability in Simulated Gastric Fluid (SGF); conditions: SGF pH 1.6 with pepsin, 1 μM, 37° C.
Outline: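 Compound at 1 μM final (from 1 mM DMSO stock) incubated at 37° C in SGF: NaCl medium at pH 1.6 with FaSSIF powder and 0.1 mg/mL pepsin, prepared fresh. Aliquots taken at T0 and regular intervals, quenched with equal volume acetonitrile; LC/MS gives degradation rate.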

For CCCC(=O)Oc1ccc(N)cc1C(=O)O [Compound 16, 5-amino-2-butanoyloxy-benzoic acid], the “Assay 3 (% Remaining at 24 h)” value [1] was “C (>75% of the tested compound remaining)” and the “Assay 2 (SIF) (% @ Remaining 4 hours)” value [2] was “C (>75% of the tested compound remaining)”.
For CCCC(=O)O[C@@H]1[C@@H](OC(=O)CCC)[C@@H](Oc2ccc(N)cc2C(=O)O)OC[C@H]1OC(=O)CCC [Compound 18, 5-amino-2-[(2R,3R,4S,5R)-3,4,5-tri(butanoyloxy)tetrahydropyran-2-yl]oxy-benzoic acid], the “Assay 1 (SGF) (% Remaining @ 1 hour)” value [3] was “C (>75% of the tested compound remaining)” and the “Assay 3 (% Remaining at 24 h)” value [1] was “C (>75% of the tested compound remaining)”.
For CCCC(=O)O[C@H]1[C@H](OC(=O)CCC)[C@H](Oc2ccccc2C(=O)O)O[C@@H](C)[C@H]1OC(=O)CCC [Compound 23, 2-(((2S,3S,4R,5R,6S)-3,4,5-tris(butyryloxy)-6-methyltetrahydro-2H-pyran-2-yl)oxy)benzoic acid], the “Assay 3 (% Remaining at 24 h)” value [1] was “C (>75% of the tested compound remaining)” and the “Assay 2 (SIF) (% @ Remaining 4 hours)” value [2] was “B (25-75% of the tested compound remaining)”.
In the case of CCCC(=O)O[C@@H]1[C@H](OC(=O)CCC)[C@H](C)OC(Oc2ccccc2C(=O)O)[C@H]1OC(=O)CCC (stereo partly drawn) [Compound 29, 2-(((3S,4R,5R,6S)-3,4,5-tris(butyryloxy)-6-methyltetrahydro-2H-pyran-2-yl)oxy)benzoic acid], the “Assay 1 (SGF) (% Remaining @ 1 hour)” value [3] is reported as “C (>75% of the tested compound remaining)” and the “Assay 3 (% Remaining at 24 h)” value [1] is reported as “C (>75% of the tested compound remaining)”.
For CCCC(=O)O[C@@H]1[C@@H](OC(=O)CCC)[C@H](Oc2ccc(N)cc2C(=O)O)OC[C@H]1O [Compound 32, 5-amino-2-(((2S,3R,4S,5R)-3,4-bis(butyryloxy)-5-hydroxytetrahydro-2H-pyran-2-yl)oxy)benzoic acid], the “Assay 3 (% Remaining at 24 h)” value [1] was “C (>75% of the tested compound remaining)” and the “Assay 2 (SIF) (% @ Remaining 4 hours)” value [2] was “B (25-75% of the tested compound remaining)”.
In the case of CCCC(=O)OC[C@H]1O[C@@H](Oc2ccc(N)cc2C(=O)O)[C@H](OC(=O)CCC)[C@@H](OC(=O)CCC)[C@@H]1OC(=O)CCC [Compound 36, 5-amino-2-(((2S,3R,4S,5R,6R)-3,4,5-tris(butyryloxy)-6-((butyryloxy)methyl)tetrahydro-2H-pyran-2-yl)oxy)benzoic acid], the “Assay 3 (% Remaining at 24 h)” value [1] is reported as “C (>75% of the tested compound remaining)” and the “Assay 2 (SIF) (% @ Remaining 4 hours)” value [2] is reported as “C (>75% of the tested compound remaining)”.
With CCCC(=O)O[C@@H]1[C@@H](OC(=O)CCC)[C@H](C)O[C@H](Oc2ccccc2C(=O)O)[C@@H]1OC(=O)CCC [Compound 38, 2-(((2R,3R,4R,5S,6S)-3,4,5-tris(butyryloxy)-6-methyltetrahydro-2H-pyran-2-yl)oxy)benzoic acid] the “Assay 3 (% Remaining at 24 h)” value [1] was “C (>75% of the tested compound remaining)” and the “Assay 2 (SIF) (% @ Remaining 4 hours)” value [2] was “C (>75% of the tested compound remaining)”.
With CCCC(=O)OC[C@H]1O[C@H](OC)[C@H](OC(=O)CCC)[C@@H](OC(=O)CCC)[C@H]1OC(=O)CCC [Compound 56, [(2R,3S,4S,5R,6S)-3,4,5-tris(butanoyloxy)-6-methoxyoxan-2-yl]methyl butanoate] the “Assay 3 (% Remaining at 24 h)” value [1] was “A (<25% of the tested compound remaining)” and the “Assay 2 (SIF) (% @ Remaining 4 hours)” value [2] was “A (<25% of the tested compound remaining)”.
In the case of CCCC(=O)OC[C@H]1O[C@@H](OC)[C@H](OC(=O)CCC)[C@@H](OC(=O)CCC)[C@@H]1OC(=O)CCC [Compound 58, [(2R,3R,4S,5R,6R)-3,4,5-tris(butanoyloxy)-6-methoxyoxan-2-yl]methyl butanoate], the “Assay 3 (% Remaining at 24 h)” value [1] is reported as “A (<25% of the tested compound remaining)” and the “Assay 2 (SIF) (% @ Remaining 4 hours)” value [2] is reported as “A (<25% of the tested compound remaining)”.
With CCC(=O)OC[C@H]1O[C@@H](OC)[C@H](OC(=O)CC)[C@@H](OC(=O)CC)[C@@H]1OC(=O)CC [Compound 59, [(2R,3R,4S,5R,6R)-6-methoxy-3,4,5-tris(propanoyloxy)oxan-2-yl]methyl propanoate] the “Assay 3 (% Remaining at 24 h)” value [1] was “A (<25% of the tested compound remaining)” and the “Assay 2 (SIF) (% @ Remaining 4 hours)” value [2] was “A (<25% of the tested compound remaining)”.
For C[C@@H]1O[C@@H](OC(=O)CCc2c[nH]c3ccccc23)[C@@H](OC(=O)CCc2c[nH]c3ccccc23)[C@H](OC(=O)CCc2c[nH]c3ccccc23)[C@@H]1OC(=O)CCc1c[nH]c2ccccc12 [Compound 64, (2S,3S,4R,5R,6S)-3,4,5-tris({[3-(1H-indol-3-yl)propanoyl]oxy})-6-methyloxan-2-yl 3-(1H-indol-3-yl)propanoate], the “Assay 3 (% Remaining at 24 h)” value [1] was “A (<25% of the tested compound remaining)” and the “Assay 2 (SIF) (% @ Remaining 4 hours)” value [2] was “A (<25% of the tested compound remaining)”.
For CCCC(=O)O[C@@H]1[C@@H](OC(=O)CCC)[C@H](C)O[C@H](OC(=O)CCc2c[nH]c3ccccc23)[C@@H]1OC(=O)CCC [Compound 86, (2R,3R,4R,5S,6S)-4,5-bis(butanoyloxy)-2-{[3-(1H-indol-3-yl)propanoyl]oxy}-6-methyloxan-3-yl butanoate], the “Assay 1 (SGF) (% Remaining @ 1 hour)” value [3] was “B (25-75% of the tested compound remaining)” and the “Assay 3 (% Remaining at 24 h)” value [1] was “A (<25% of the tested compound remaining)”.
For CCCC(=O)O[C@H]1[C@H](OC(=O)CCC)[C@@H](OC(=O)CCc2c[nH]c3ccccc23)O[C@@H](C)[C@H]1OC(=O)CCC [Compound 87, (2R,3S,4R,5R,6S)-4,5-bis(butanoyloxy)-2-{[3-(1H-indol-3-yl)propanoyl]oxy}-6-methyloxan-3-yl butanoate], the “Assay 1 (SGF) (% Remaining @ 1 hour)” value [3] was “B (25-75% of the tested compound remaining)” and the “Assay 3 (% Remaining at 24 h)” value [1] was “A (<25% of the tested compound remaining)”.
In the case of CCCC(=O)O[C@@H]1[C@@H](OC(=O)CCC)[C@H](OC)OC[C@H]1OC(=O)CCC [Compound 88, (2R,3R,4S,5R)-4,5-bis(butanoyloxy)-2-methoxyoxan-3-yl butanoate], the “Assay 3 (% Remaining at 24 h)” value [1] is reported as “A (<25% of the tested compound remaining)” and the “Assay 2 (SIF) (% @ Remaining 4 hours)” value [2] is reported as “A (<25% of the tested compound remaining)”.
With CCCC(=O)O[C@@H]1[C@@H](OC(=O)CCC)[C@H](OC(=O)CCc2c[nH]c3ccccc23)OC[C@H]1OC(=O)CCC [Compound 97, (2S,3R,4S,5R)-4,5-bis(butanoyloxy)-2-{[3-(1H-indol-3-yl)propanoyl]oxy}oxan-3-yl butanoate] the “Assay 1 (SGF) (% Remaining @ 1 hour)” value [3] was “B (25-75% of the tested compound remaining)” and the “Assay 3 (% Remaining at 24 h)” value [1] was “A (<25% of the tested compound remaining)”.
In the case of CCC(=O)OC[C@H]1O[C@H](OC(=O)/C=C/c2c[nH]c3ccccc23)[C@H](OC(=O)CC)[C@@H](OC(=O)CC)[C@@H]1OC(=O)CC [Compound 99, (2R,3R,4S,5R,6R)-3,4,5-tris(propanoyloxy)-6-[(propanoyloxy)methyl]oxan-2-yl (2E)-3-(1H-indol-3-yl)prop-2-enoate], the “Assay 1 (SGF) (% Remaining @ 1 hour)” value [3] is reported as “B (25-75% of the tested compound remaining)” and the “Assay 3 (% Remaining at 24 h)” value [1] is reported as “A (<25% of the tested compound remaining)”.
With O=C(CCc1c[nH]c2ccccc12)O[C@H]1OC[C@@H](OC(=O)CCc2c[nH]c3ccccc23)[C@@H](OC(=O)CCc2c[nH]c3ccccc23)[C@H]1OC(=O)CCc1c[nH]c2ccccc12 [Compound 150, (2R,3R,4R,5R)-3,4,5-tris({[3-(1H-indol-3-yl)propanoyl]oxy})oxan-2-yl 3-(1H-indol-3-yl)propanoate] the “Assay 3 (% Remaining at 24 h)” value [1] was “A (<25% of the tested compound remaining)” and the “Assay 2 (SIF) (% @ Remaining 4 hours)” value [2] was “A (<25% of the tested compound remaining)”.
With CCCC(=O)O[C@H]1[C@H](OC(=O)CCC)COC(O)[C@@H]1OC(=O)CCC (stereo partly drawn) [Compound 158, (3R,4S,5R)-4,5-bis(butanoyloxy)-2-hydroxyoxan-3-yl butanoate] the “Assay 3 (% Remaining at 24 h)” value [1] was “A (<25% of the tested compound remaining)” and the “Assay 2 (SIF) (% @ Remaining 4 hours)” value [2] was “A (<25% of the tested compound remaining)”.
In the case of CCCC(=O)O[C@@H]1[C@@H](OC(=O)CCC)[C@H](Oc2ccc(N)cc2C(=O)O)OC[C@H]1OC(=O)CCC [Compound 183, 5-amino-2-[(2S,3R,4S,5R)-3,4,5-tri(butanoyloxy)tetrahydropyran-2-yl]oxy-benzoic acid], the “Assay 3 (% Remaining at 24 h)” value [1] is reported as “B (25-75% of the tested compound remaining)” and the “Assay 2 (SIF) (% @ Remaining 4 hours)” value [2] is reported as “B (25-75% of the tested compound remaining)”.
In the case of O=C(CCc1c[nH]c2ccccc12)Oc1ccc2c(c1)oc(=O)c1cc(OC(=O)CCc3c[nH]c4ccccc34)c(OC(=O)CCc3c[nH]c4ccccc34)cc12 [Compound 208, 8,9-bis({[3-(1H-indol-3-yl)propanoyl]oxy})-6-oxo-6H-benzo[c]chromen-3-yl 3-(1H-indol-3-yl)propanoate], the “Assay 3 (% Remaining at 24 h)” value [1] is reported as “B (25-75% of the tested compound remaining)” and the “Assay 2 (SIF) (% @ Remaining 4 hours)” value [2] is reported as “B (25-75% of the tested compound remaining)”.
